Literature values, collected in US20200309767A1, “HIGH-THROUGHPUT IMAGING-BASED METHODS FOR PREDICTING CELL-TYPE-SPECIFIC TOXICITY OF XENOBIOTICS WITH DIVERSE CHEMICAL STRUCTURES” (priority 2015, published 2020).
Where a name gives a salt, the structure may show the parent alone. Read-outs that look alike come from different tables or passages of the source.

Assays:
lung = conditions: cited from earlier work
[1] = tested on: human proximal tubular cells (PTCs); conditions: human, in vivo; cited from earlier work
liver = conditions: in vivo; cited from earlier work
human kidney = conditions: in vivo; cited from earlier work

CCC[C@@H]1C[C@@H](C(=O)N[C@@H]([C@H]2O[C@H](SC)[C@H](O)[C@@H](O)[C@H]2O)[C@@H](C)O)N(C)C1 [Lincomycin hydrochloride]
Pulmonotoxic (lung; human, in vivo): 0

Cl[C@H]1[C@H](Cl)[C@@H](Cl)[C@@H](Cl)[C@H](Cl)[C@H]1Cl [Lindane]
PTC Toxicity [1]: Non-toxic
PTC-toxic [1]: 0
Hepatotoxic (liver): 0
Nephrotoxic (human kidney): 1

COc1ccc2[nH]cc(CCNC(C)=O)c2c1 [Melatonin]
PTC Toxicity [1]: Non-toxic

CN(C)C(=N)N=C(N)N [Metformin hydrochloride]
Hepatotoxic (liver): 0
Nephrotoxic (human kidney): 1

CN(Cc1cnc2nc(N)nc(N)c2n1)c1ccc(C(=O)N[C@@H](CCC(=O)O)C(=O)O)cc1 [Methotrexate]
Pulmonotoxic (lung; human, in vivo): 1

C[C@H]1C(=O)O[C@@H]2CCN3CC=C(COC(=O)[C@](C)(O)[C@]1(C)O)[C@H]23 [Monocrotaline]
Pulmonotoxic (lung; human, in vivo): 0

CN(CCCC(=O)c1cccnc1)N=O [NNK]
Pulmonotoxic (lung; known toxicity flag 1/0): 1

O=C1CC[C@@]2(O)[C@H]3Cc4ccc(O)c5c4[C@@]2(CCN3CC2CC2)[C@H]1O5 [Naltrexone hydrochloride]
Pulmonotoxic (lung; human, in vivo): 0

Cc1ccnc2c1NC(=O)c1cccnc1N2C1CC1 [Nevirapine]
Pulmonotoxic (lung; human, in vivo): 0

O=C1CN(/N=C/c2ccc([N+](=O)[O-])o2)C(=O)N1 [Nitrofurantoin]
Pulmonotoxic (lung; human, in vivo): 1

C[C@@H]1[C@H](O)[C@@H](C)/C=C/C=C/CC/C=C/C=C/C=C/C=C/C(O[C@H]2O[C@H](C)[C@@H](O)[C@H](N)[C@@H]2O)CC2O[C@](O)(CC(O)C(O)CCC(O)CC(O)CC(O)CC(=O)O[C@H]1C)CC(O)C2C(=O)O (stereo partly drawn) [Nystatin]
Pulmonotoxic (lung; human, in vivo): 0

CCOc1ccc(NC(C)=O)cc1 [Phenacetin]
PTC Toxicity [1]: Non-toxic

[K+].[K+].[O]=[Cr](=[O])([O-])[O][Cr](=[O])(=[O])[O-] [Potassium dichromate]
PTC Toxicity [1]: Toxic
PTC-toxic [1]: 1
Hepatotoxic (liver): 1
Nephrotoxic (human kidney): 1

COc1ccc(C[C@H](N)C(=O)N[C@H]2[C@@H](O)[C@H](n3cnc4c(N(C)C)ncnc43)O[C@@H]2CO)cc1 [Puromycin]
PTC Toxicity [1]: Toxic
PTC-toxic [1]: 1
Hepatotoxic (liver): 1
Nephrotoxic (human kidney): 1

CO[C@H]1/C=C/O[C@@]2(C)Oc3c(C)c(O)c4c(O)c(c(/C=N/N5CCN(C)CC5)c(O)c4c3C2=O)NC(=O)/C(C)=C\C=C\[C@H](C)[C@H](O)[C@@H](C)[C@@H](O)[C@@H](C)[C@H](OC(C)=O)[C@@H]1C [Rifampicin]
PTC Toxicity [1]: Toxic
PTC-toxic [1]: 1
Hepatotoxic (liver): 1
Nephrotoxic (human kidney): 1

[Cl-].[Na+] [Sodium chloride]
Pulmonotoxic (lung; human, in vivo): 0

C=CC[C@@H]1/C=C(\C)C[C@H](C)C[C@H](OC)[C@H]2O[C@@](O)(C(=O)C(=O)N3CCCC[C@H]3C(=O)O[C@H](/C(C)=C/[C@@H]3CC[C@@H](O)[C@H](OC)C3)[C@H](C)[C@@H](O)CC1=O)[C@H](C)C[C@@H]2OC [Tacrolimus]
PTC Toxicity [1]: Toxic
PTC-toxic [1]: 1
Hepatotoxic (liver): 0
Nephrotoxic (human kidney): 1

CN(C)[C@@H]1C(O)=C(C(N)=O)C(=O)[C@@]2(O)C(O)=C3C(=O)c4c(O)cccc4[C@@](C)(O)[C@H]3C[C@@H]12 [Tetracycline]
PTC Toxicity [1]: Toxic
PTC-toxic [1]: 1
Hepatotoxic (liver): 1
Nephrotoxic (human kidney): 1

CN1COCN(Cc2cnc(Cl)s2)/C1=N\[N+](=O)[O-] [Thiamethoxam]
Pulmonotoxic (lung; human, in vivo): 0

OCCOCCOCCO [Triethylene glycol]
Pulmonotoxic (lung; human, in vivo): 0

N[C@@H](Cc1cc(I)c(Oc2ccc(O)c(I)c2)c(I)c1)C(=O)O [Triiodothyronine]
PTC Toxicity [1]: Non-toxic

CC(C)[C@H](N)C(=O)OCCOCn1cnc2c(=O)[nH]c(N)nc21 [Valacyclovir]
PTC Toxicity [1]: Non-toxic
PTC-toxic [1]: 0
Hepatotoxic (liver): 1
Nephrotoxic (human kidney): 1

CN[C@H](CC(C)C)C(=O)N[C@H]1C(=O)N[C@@H](CC(N)=O)C(=O)N[C@H]2C(=O)N[C@H]3C(=O)N[C@H](C(=O)N[C@H](C(=O)O)c4cc(O)cc(O)c4-c4cc3ccc4O)[C@H](O)c3ccc(c(Cl)c3)Oc3cc2cc(c3O[C@@H]2O[C@H](CO)[C@@H](O)[C@H](O)[C@H]2O[C@H]2C[C@](C)(N)[C@H](O)[C@H](C)O2)Oc2ccc(cc2Cl)[C@H]1O [Vancomycin hydrochloride]
Pulmonotoxic (lung; human, in vivo): 0

CN[C@H](CC(C)C)C(=O)N[C@H]1C(=O)N[C@@H](CC(N)=O)C(=O)N[C@H]2C(=O)N[C@H]3C(=O)N[C@H](C(=O)N[C@H](C(=O)O)c4cc(O)cc(O)c4-c4cc3ccc4O)[C@H](O)c3ccc(c(Cl)c3)Oc3cc2cc(c3O[C@@H]2O[C@H](CO)[C@@H](O)[C@H](O)[C@H]2O[C@H]2C[C@](C)(N)[C@H](O)[C@H](C)O2)Oc2ccc(cc2Cl)[C@H]1O [Vancomycin]
PTC Toxicity [1]: Non-toxic
PTC-toxic [1]: 0
Hepatotoxic (liver): 1
Nephrotoxic (human kidney): 1

C=C(Cl)Cl [Vinylidene chloride]
Pulmonotoxic (lung; human, in vivo): 0

Nc1ccc(N)cc1 [p-Phenylenediamine]
Pulmonotoxic (lung; human, in vivo): 1

C=CC(=C)CCC=C(C)C [β-Myrcene]
Pulmonotoxic (lung; human, in vivo): 0

Bleomycin sulfate
Pulmonotoxic (lung; human, in vivo): 1

Hydroxypropyl-β-cyclodextrin
Pulmonotoxic (lung; human, in vivo): 0
